Laboratory results as given in patent publication US20210052492A1, “Cannabinoid Dosing Regime For Psoriasis” (Botanix Pharmaceuticals Ltd., priority 2018, published 2021).

Experiment: Skin permeation of CBD in a Franz-type diffusion cell
Format: in vitro ADME
Conditions: 5 ul of 5.0% w/w CBD formulation, 48-hour exposure
Description: Dermatomed skin from a single donor was mounted in a Franz-type diffusion cell (0.55 cm^2 receptor fluid exposure surface area) and dosed with 5 ul of CBD formulated in an mixture of a volatile solvent (hexylmethyldisiloxane/polymethylsiloxane—93% w/w), and residual solvent (arlamol E—2% w/w) at a concentration of 5.0% (w/w; 35.5 mg/ml). Following dosing, receptor phase samples were collected at 4, 10, 24 and 48 hours; after which the study was terminated.
The residual formulation was removed by tape stripping and the epidermis and dermis separated by blunt dissection. The levels of CBD in the epidermis, dermis, and receptor fluid samples were then analyzed using a bioanalytical method with LC-MS/MS detection.

For `C=C(C)C1CCC(C)=CC1c1c(O)cc(CCCCC)cc1O` (centres unmarked) [CBD, 2-[3-methyl-6-(1-methylethenyl)-2-cyclohexen-1-yl]-5-pentyl-1,3-benzenediol], the “skin permeation through to the receptor phase, % of applied dose” value was “less than 0.081%” and the “skin permeation, amount in the receptor phase” value was less than 278 ng/cm^2.
